# Biological target: T1, recombinant human KLK5 (Homo sapiens, UniProt Q9Y337)
# T1 construct: purchased Novoprotein or R&D Systems C415 or 1108-SE
# T1 sequence (Q9Y337 23-293): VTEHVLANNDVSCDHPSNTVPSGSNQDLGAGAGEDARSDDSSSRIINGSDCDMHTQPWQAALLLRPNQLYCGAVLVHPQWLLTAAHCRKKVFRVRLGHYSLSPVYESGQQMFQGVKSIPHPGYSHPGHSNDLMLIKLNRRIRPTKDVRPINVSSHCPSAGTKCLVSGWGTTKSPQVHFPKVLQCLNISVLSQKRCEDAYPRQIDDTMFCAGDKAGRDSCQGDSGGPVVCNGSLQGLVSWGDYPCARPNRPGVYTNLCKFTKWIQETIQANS
# Assay: Kallikrein (KLK) 5 enzymatic assay (Boc-VPR-AMC fluorogenic substrate)
# Assay type: biochemical
# Details: recombinant human KLK5 0.1 μg/well, Boc-VPR-AMC 100 μM, pH 7.5, room temperature, 1% DMSO; tested a minimum of three times
# Method in brief: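 Recombinant human KLK5 (0.1 μg/well) was preincubated with compound at room temperature in 0.1 M NaH2PO4, pH 7.5, 1% DMSO, then started with 100 μM Boc-VPR-AMC. The rate was followed at 380/460 nm, and IC50 came from percent inhibition relative to enzyme alone, with at least three runs.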
row,IC50 [µM],SMILES
1,< 1,"CCOC(=O)N1CC[C@@H](n2nc(COc3ccccc3CC(=O)O)c3cc(-c4cccc5c(N)nccc45)ccc32)C1 [Compound 340i, (R)-2-(2-((5-(1-aminoisoquinolin-5-yl)-1-(1-(ethoxycarbonyl)pyrrolidin-3-yl)-1H-indazol-3-yl)methoxy)phenyl)acetic acid]"
2,< 1,"CCOC(=O)N1CC[C@@H](n2nc(COc3cccc(C)c3CC(=O)O)c3cc(-c4cccc5c(N)nccc45)ccc32)C1 [Compound 341e, (R)-2-(2-((5-(1-aminoisoquinolin-5-yl)-1-(1-(ethoxycarbonyl)pyrrolidin-3-yl)-1H-indazol-3-yl)methoxy)-6-methylphenyl)acetic acid]"
3,< 1,"CCOC(=O)N1CC[C@@H](n2nc(COc3ccccc3CC(=O)O)c3cc(-c4ccc5ccnc(N)c5c4)ccc32)C1 [Compound 342b, (R)-2-(2-((5-(1-aminoisoquinolin-7-yl)-1-(1-(ethoxycarbonyl)pyrrolidin-3-yl)-1H-indazol-3-yl)methoxy)phenyl)acetic acid]"
4,< 1,"CCOC(=O)N1CC[C@H](n2nc(COc3cccc(C)c3CC(=O)O)c3cc(-c4ccc5ccnc(N)c5c4)ccc32)C1 [Compound 343i, (S)-2-(2-((5-(1-aminoisoquinolin-7-yl)-1-(1-(ethoxycarbonyl)pyrrolidin-3-yl)-1H-indazol-3-yl)methoxy)-6-methylphenyl)acetic acid]"
5,< 1,"CCOC(=O)N1CC[C@H](n2nc(COc3cccc(C)c3CC(=O)O)c3cc(-c4cccc5c(N)nccc45)ccc32)C1 [Compound 344b, (S)-2-(2-((5-(1-aminoisoquinolin-5-yl)-1-(1-(ethoxycarbonyl)pyrrolidin-3-yl)-1H-indazol-3-yl)methoxy)-6-methylphenyl)acetic acid]"
6,< 1,"CCOC(=O)N1CC[C@H](n2nc(COc3ccccc3CC(=O)O)c3cc(-c4cccc5c(N)nccc45)ccc32)C1 [Compound 345e, (S)-2-(2-((5-(1-aminoisoquinolin-5-yl)-1-(1-(ethoxycarbonyl)pyrrolidin-3-yl)-1H-indazol-3-yl)methoxy)phenyl)acetic acid]"
7,< 1,"CCOC(=O)N1CC[C@H](n2nc(COc3ccccc3CC(=O)O)c3cc(-c4ccc5ccnc(N)c5c4)ccc32)C1 [Compound 346b, (S)-2-(2-((5-(1-aminoisoquinolin-7-yl)-1-(1-(ethoxycarbonyl)pyrrolidin-3-yl)-1H-indazol-3-yl)methoxy)phenyl)acetic acid]"
8,< 1,"CCOC(=O)N1CCC2(CC1)CC(Oc1ccccc1CC(=O)O)c1cc(-c3ccc4ccnc(N)c4c3)ccc12 (stereo not drawn) [Compound 349d, 2-(2-((5-(1-aminoisoquinolin-7-yl)-1′-(ethoxycarbonyl)-2,3-dihydrospiro[indene-1,4′-piperidin]-3-yl)oxy)phenyl)acetic acid]"
9,< 1,"Nc1nccc2ccc(-c3ccc4c(c3)C(Oc3ccccc3CC(=O)O)CC43CCOCC3)cc12 (stereo not drawn) [Compound 350h, 2-(2-((5-(1-aminoisoquinolin-7-yl)-2,2′,3,3′,5′,6′-hexahydrospiro[indene-1,4′-pyran]-3-yl)oxy)phenyl)acetic acid]"
10,< 1,"Nc1nccc2c(-c3ccc4c(c3)C(Oc3ccccc3CC(=O)O)CC43CCOCC3)cccc12 (stereo not drawn) [Compound 351b, 2-(2-((5-(1-aminoisoquinolin-5-yl)-2,2′,3,3′,5′,6′-hexahydrospiro[indene-1,4′-pyran]-3-yl)oxy)phenyl)acetic acid]"
11,< 1,"Cc1cccc(OC2CC3(CCOCC3)c3ccc(-c4ccc5ccnc(N)c5c4)cc32)c1CC(=O)O (stereo not drawn) [Compound 352c, 2-(2-((5-(1-aminoisoquinolin-7-yl)-2,2′,3,3′,5′,6′-hexahydrospiro[indene-1,4′-pyran]-3-yl)oxy)-6-methylphenyl)acetic acid]"
12,< 1,"Cc1cccc(OC2CC3(CCOCC3)c3ccc(-c4cccc5c(N)nccc45)cc32)c1CC(=O)O (stereo not drawn) [Compound 353b, 2-(2-((5-(1-aminoisoquinolin-5-yl)-2,2′,3,3′,5′,6′-hexahydrospiro[indene-1,4′-pyran]-3-yl)oxy)-6-methylphenyl)acetic acid]"
13,< 1,"Nc1nccc2c(-c3ccc4c(c3)C(Oc3ccccc3CC(=O)O)CC43CCCC3)cccc12 (stereo not drawn) [Compound 354f, 2-(2-((5′-(1-aminoisoquinolin-5-yl)-2′,3′-dihydrospiro[cyclopentane-1,1′-inden]-3′-yl)oxy)phenyl)acetic acid]"
14,< 1,"Nc1nccc2ccc(-c3ccc4c(c3)C(Oc3ccccc3CC(=O)O)CC43CCCC3)cc12 (stereo not drawn) [Compound 355b, 2-(2-((5′-(1-aminoisoquinolin-7-yl)-2′,3′-dihydrospiro[cyclopentane-1,1′-inden]-3′-yl)oxy)phenyl)acetic acid]"
15,< 1,"CCOC(=O)N1CC[C@H](n2nc(COc3cccc(C4CC4)c3CC(=O)O)c3cc(-c4ccc5ccnc(N)c5c4)ccc32)C1 [Compound 356e, (S)-2-(2-((5-(1-aminoisoquinolin-7-yl)-1-(1-(ethoxycarbonyl)pyrrolidin-3-yl)-1H-indazol-3-yl)methoxy)-6-cyclopropylphenyl)acetic acid]"
16,< 1,"CCOC(=O)N1CC[C@H](n2nc(COc3cccc(C4CC4)c3CC(=O)O)c3cc(-c4cccc5c(N)nccc45)ccc32)C1 [Compound 357b, (S)-2-(2-((5-(1-aminoisoquinolin-5-yl)-1-(1-(ethoxycarbonyl)pyrrolidin-3-yl)-1H-indazol-3-yl)methoxy)-6-cyclopropylphenyl)acetic acid]"
17,< 1,"CC(C)OC(=O)N1CC[C@H](n2nc(COc3ccccc3CC(=O)O)c3cc(-c4ccc5ccnc(N)c5c4)ccc32)C1 [Compound 358c, (S)-2-(2-((5-(1-aminoisoquinolin-7-yl)-1-(1-(isopropoxycarbonyl)pyrrolidin-3-yl)-1H-indazol-3-yl)methoxy)phenyl)acetic acid]"
18,< 1,"CC(C)OC(=O)N1CC[C@H](n2nc(COc3ccccc3CC(=O)O)c3cc(-c4cccc5c(N)nccc45)ccc32)C1 [Compound 359b, (S)-2-(2-((5-(1-aminoisoquinolin-5-yl)-1-(1-(isopropoxycarbonyl)pyrrolidin-3-yl)-1H-indazol-3-yl)methoxy)phenyl)acetic acid]"

row,SMILES,IC50 [µM]
1,"CC(C)(C)OC(=O)N1CCC2(CC1)CC(Oc1ccccc1CC(=O)O)c1cc(-c3cccc4c(N)nccc34)ccc12 (stereo not drawn) [Compound 347d, 2-(2-((5-(1-aminoisoquinolin-5-yl)-1′-(tert-butoxycarbonyl)-2,3-dihydrospiro[indene-1,4′-piperidin]-3-yl)oxy)phenyl)acetic acid]",< 1
2,"CC(C)(C)OC(=O)N1CCC2(CC1)CC(Oc1ccccc1CC(=O)O)c1cc(-c3ccc4ccnc(N)c4c3)ccc12 (stereo not drawn) [Compound 348b, 2-(2-((5-(1-aminoisoquinolin-7-yl)-1′-(tert-butoxycarbonyl)-2,3-dihydrospiro[indene-1,4′-piperidin]-3-yl)oxy)phenyl)acetic acid]",< 1
3,"CC(C)COC(=O)N1CC[C@H](n2nc(COc3ccccc3CC(=O)O)c3cc(-c4ccc5ccnc(N)c5c4)ccc32)C1 [Compound 360c, (S)-2-(2-((5-(1-aminoisoquinolin-7-yl)-1-(1-(isobutoxycarbonyl)pyrrolidin-3-yl)-1H-indazol-3-yl)methoxy)phenyl)acetic acid]",< 1

# Source: US20240239752A1, “BICYCLIC HETEROAROMATIC INHIBITORS OF KLK5” (BioCryst Pharmaceuticals, Inc., priority 2021, published 2024)
